Data taken from PubChem BioAssay (NCI).
Values joined by “and” are separate entries in the source; they are usually repeats but may differ in a detail not shown here. Equal entries are not always repeated.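 Results reflect a 48-hour exposure of cells in 96-well plates to compound at five concentrations. At the GI50, growth is halved. TGI denotes the concentration required for complete inhibition of growth.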

Experiments:
Assay in all cases: DTP human tumour cell line panel, 48 h
SK-MEL-2 melanoma = test system: SK-MEL-2 melanoma
MCF7 breast = test system: MCF7 breast
SF-539 CNS = test system: SF-539 CNS
OVCAR-3 ovarian = test system: OVCAR-3 ovarian
SK-MEL-28 melanoma = test system: SK-MEL-28 melanoma
BT-549 breast = test system: BT-549 breast
DU-145 prostate = test system: DU-145 prostate
SK-MEL-5 melanoma = test system: SK-MEL-5 melanoma
A549 NSCLC = test system: A549 NSCLC
NCI-H226 lung = test system: NCI-H226 lung

O=c1oc2cc(O)ccc2cc1-c1nc2ccccc2o1
TGI (SK-MEL-2 melanoma): > 100 µM
TGI (MCF7 breast): > 100 µM
TGI (SF-539 CNS): > 100 µM
TGI (OVCAR-3 ovarian): 61.8 µM
TGI (SK-MEL-28 melanoma): > 100 µM
TGI (BT-549 breast): 54 µM
TGI (DU-145 prostate): > 100 µM
TGI (SK-MEL-5 melanoma): 40.8 µM
TGI (A549 NSCLC): > 100 µM
TGI (NCI-H226 lung): > 100 µM

COC(=O)c1cc2c3cc(Cl)ccc3[nH]c2c2ncccc12
GI50 (SK-MEL-2 melanoma): > 100 µM
TGI (SK-MEL-2 melanoma): > 100 µM
GI50 (MCF7 breast): > 100 µM
TGI (MCF7 breast): > 100 µM
GI50 (SF-539 CNS): 51.8 µM
TGI (SF-539 CNS): > 100 µM
GI50 (OVCAR-3 ovarian): > 100 µM
TGI (OVCAR-3 ovarian): > 100 µM
GI50 (SK-MEL-28 melanoma): > 100 µM
TGI (SK-MEL-28 melanoma): > 100 µM
GI50 (BT-549 breast): > 100 µM
TGI (BT-549 breast): > 100 µM
GI50 (DU-145 prostate): > 100 µM
TGI (DU-145 prostate): > 100 µM
GI50 (SK-MEL-5 melanoma): > 100 µM
TGI (SK-MEL-5 melanoma): > 100 µM
GI50 (A549 NSCLC): > 100 µM
TGI (A549 NSCLC): > 100 µM
GI50 (NCI-H226 lung): > 100 µM
TGI (NCI-H226 lung): > 100 µM

Nc1ncnc2occ(-c3ccc(NC(=O)Nc4cccc(C(F)(F)F)c4)cc3)c12
GI50 (SK-MEL-2 melanoma): 5.39 µM
TGI (SK-MEL-2 melanoma): 11.6 µM
GI50 (MCF7 breast): 2.34 µM
TGI (MCF7 breast): 19.3 µM
GI50 (SF-539 CNS): 0.702 µM
TGI (SF-539 CNS): 7.1 µM
GI50 (OVCAR-3 ovarian): 4.79 µM
TGI (OVCAR-3 ovarian): 9.72 µM
GI50 (SK-MEL-28 melanoma): 4.89 µM
TGI (SK-MEL-28 melanoma): 12.7 µM
GI50 (BT-549 breast): 4.32 µM
TGI (BT-549 breast): 10.5 µM
GI50 (DU-145 prostate): 4.82 µM
TGI (DU-145 prostate): 16.1 µM
GI50 (SK-MEL-5 melanoma): 3.06 µM
TGI (SK-MEL-5 melanoma): 6.21 µM
GI50 (A549 NSCLC): 4.73 µM
TGI (A549 NSCLC): 14.9 µM
GI50 (NCI-H226 lung): 0.367 µM
TGI (NCI-H226 lung): 6.1 µM

O=C(Nc1cccc2[nH]c(C(F)(F)F)nc12)c1ccc(Br)cc1F
GI50 (SK-MEL-2 melanoma): 0.32 µM
TGI (SK-MEL-2 melanoma): 2.12 µM
GI50 (MCF7 breast): 2.5 µM
TGI (MCF7 breast): 15 µM
GI50 (SF-539 CNS): 3.26 µM
TGI (SF-539 CNS): 11.6 µM
GI50 (OVCAR-3 ovarian): 3.62 µM
TGI (OVCAR-3 ovarian): 16.8 µM
GI50 (SK-MEL-28 melanoma): 4.76 µM
TGI (SK-MEL-28 melanoma): 16.4 µM
GI50 (BT-549 breast): 3.01 µM
TGI (BT-549 breast): 10.3 µM
GI50 (DU-145 prostate): 4.87 µM
TGI (DU-145 prostate): 20.5 µM
GI50 (SK-MEL-5 melanoma): 1.85 µM
TGI (SK-MEL-5 melanoma): 3.94 µM
GI50 (A549 NSCLC): 3.27 µM
TGI (A549 NSCLC): 13.3 µM
GI50 (NCI-H226 lung): 2.97 µM
TGI (NCI-H226 lung): 12.8 µM

COc1cccc2c1C(=O)c1c(O)c3c(c(O)c1C2=O)C[C@@](O)(C(=O)CO)C[C@@H]3OC1CC2C(OCN2CN2COC3C(C)OC(O[C@H]4C[C@](O)(C(=O)CO)Cc5c(O)c6c(c(O)c54)C(=O)c4c(OC)cccc4C6=O)CC32)C(C)O1 (some centres not stated)
GI50 (SK-MEL-2 melanoma): 0.0179 µM
TGI (SK-MEL-2 melanoma): 0.0591 µM
GI50 (MCF7 breast): 0.00264 µM
TGI (MCF7 breast): 0.12 µM
GI50 (SF-539 CNS): 0.0112 µM
TGI (SF-539 CNS): 0.0638 µM
GI50 (OVCAR-3 ovarian): 0.0142 µM
TGI (OVCAR-3 ovarian): 0.0534 µM
GI50 (SK-MEL-28 melanoma): 0.016 µM
TGI (SK-MEL-28 melanoma): 0.0378 µM
GI50 (BT-549 breast): 0.024 µM
TGI (BT-549 breast): > 0.46 µM
GI50 (DU-145 prostate): 0.00312 µM
TGI (DU-145 prostate): > 1 µM
GI50 (SK-MEL-5 melanoma): 0.0143 µM
TGI (SK-MEL-5 melanoma): 0.0492 µM
GI50 (A549 NSCLC): 0.0056 µM
GI50 (NCI-H226 lung): 0.00981 µM
TGI (NCI-H226 lung): 0.0584 µM

NC(=O)c1c(NC(=O)c2ccc(C(F)(F)F)cc2Cl)sc2c1CCC(=O)C2
GI50 (SK-MEL-2 melanoma): 1.87 µM
TGI (SK-MEL-2 melanoma): 5.37 µM
GI50 (MCF7 breast): 0.279 µM
TGI (MCF7 breast): 4.08 µM
GI50 (SF-539 CNS): 0.28 µM
TGI (SF-539 CNS): 1.04 µM
GI50 (OVCAR-3 ovarian): 0.369 µM
TGI (OVCAR-3 ovarian): 1.33 µM
GI50 (SK-MEL-28 melanoma): 0.531 µM
TGI (SK-MEL-28 melanoma): 2.04 µM
GI50 (BT-549 breast): 0.294 µM
TGI (BT-549 breast): 1.91 µM
GI50 (DU-145 prostate): 3.83 µM
TGI (DU-145 prostate): 25 µM
GI50 (SK-MEL-5 melanoma): 0.684 µM
TGI (SK-MEL-5 melanoma): 2.08 µM
GI50 (A549 NSCLC): 2.69 µM
TGI (A549 NSCLC): 14.4 µM
GI50 (NCI-H226 lung): 1.34 µM
TGI (NCI-H226 lung): 5.85 µM

O=C(N/N=C/c1coc2ccc(Cl)cc2c1=O)c1cc(O)c(O)c(O)c1
GI50 (SK-MEL-2 melanoma): > 100 µM
TGI (SK-MEL-2 melanoma): > 100 µM
GI50 (MCF7 breast): 75.7 µM
TGI (MCF7 breast): > 100 µM
GI50 (SF-539 CNS): 23.6 µM
TGI (SF-539 CNS): 62.7 µM
GI50 (OVCAR-3 ovarian): 40.4 µM
TGI (OVCAR-3 ovarian): > 100 µM
GI50 (SK-MEL-28 melanoma): 65.7 µM
TGI (SK-MEL-28 melanoma): > 100 µM
GI50 (BT-549 breast): 23.3 µM
TGI (BT-549 breast): 96.6 µM
GI50 (DU-145 prostate): 30.7 µM
TGI (DU-145 prostate): > 100 µM
GI50 (SK-MEL-5 melanoma): 11.6 µM
TGI (SK-MEL-5 melanoma): 34.2 µM
GI50 (A549 NSCLC): 31.4 µM
TGI (A549 NSCLC): > 100 µM
GI50 (NCI-H226 lung): 26.1 µM
TGI (NCI-H226 lung): 68.4 µM

O=C1C2C3C=CC(C2C(=O)N1CN1CCOCC1)C1C2C(=O)N(CN4CCOCC4)C(=O)C2C31 (configuration not stated)
TGI (SK-MEL-2 melanoma): > 61.1 µM
TGI (MCF7 breast): > 100 µM
TGI (SF-539 CNS): > 79.6 µM
TGI (OVCAR-3 ovarian): > 77.8 µM
TGI (SK-MEL-28 melanoma): > 66 µM
TGI (BT-549 breast): > 100 µM
TGI (DU-145 prostate): > 100 µM
TGI (SK-MEL-5 melanoma): > 58 µM
TGI (A549 NSCLC): > 86.9 µM
TGI (NCI-H226 lung): > 84.3 µM

CCOC(=O)c1ccc(N[C@@H]2c3cc4c(cc3C(c3cc(OC)c(O)c(OC)c3)[C@H]3C(=O)OCC32)OCO4)cc1 (some centres not stated)
TGI (SK-MEL-2 melanoma): 6.27 µM
TGI (MCF7 breast): 20.3 µM
GI50 (SF-539 CNS): 0.34 µM
TGI (SF-539 CNS): 0.951 µM and 1.97 µM
TGI (OVCAR-3 ovarian): 6.71 µM
GI50 (SK-MEL-28 melanoma): 0.935 µM
TGI (SK-MEL-28 melanoma): 8.59 µM
TGI (BT-549 breast): 4.58 µM
TGI (DU-145 prostate): > 100 µM
GI50 (SK-MEL-5 melanoma): 0.379 µM
TGI (SK-MEL-5 melanoma): 2.95 µM
GI50 (A549 NSCLC): 0.103 µM
TGI (A549 NSCLC): 2.76 µM
TGI (NCI-H226 lung): 0.719 µM and 1.95 µM

O=NN(CC(=O)NNc1ccccc1)CC(=O)NNc1ccccc1
GI50 (SK-MEL-2 melanoma): > 100 µM
TGI (SK-MEL-2 melanoma): > 100 µM
GI50 (MCF7 breast): 8.13 µM
TGI (MCF7 breast): > 100 µM
GI50 (SF-539 CNS): 2.84 µM
TGI (SF-539 CNS): 10.1 µM
GI50 (OVCAR-3 ovarian): 11.3 µM
TGI (OVCAR-3 ovarian): > 100 µM
TGI (SK-MEL-28 melanoma): > 100 µM
GI50 (BT-549 breast): > 28.7 µM
TGI (BT-549 breast): > 100 µM
GI50 (DU-145 prostate): > 100 µM
TGI (DU-145 prostate): > 100 µM
GI50 (SK-MEL-5 melanoma): 8.67 µM
TGI (SK-MEL-5 melanoma): > 100 µM
GI50 (A549 NSCLC): > 23.1 µM
TGI (A549 NSCLC): > 100 µM
GI50 (NCI-H226 lung): > 100 µM
TGI (NCI-H226 lung): > 100 µM
